Test results reported in patent US8329717B2, “Pyrimidine derivatives and their use for controlling undesired plant growth” (Bayer Cropscience AG, priority 2008, dated 2012).

Tests used:
[1] = logp (HCOOH), chemicophysical data
Stellaria media [2] = assay: Post-emergence herbicidal effect; assay type: in vivo; conditions: Dosage 320 g/ha, one-leaf stage, visual scoring after ca. 3 weeks vs untreated controls, 100% = plants have died
Protocol: (§1) The following abbreviations are used in the tables below: [table] 2. Post-Emergence Herbicidal Effect and Crop Plant Compatibility Seeds of monocotyledonous or dicotyledonous weed plants or crop plants are planted in wood-fiber pots in sandy loam, covered with earth and grown in a greenhouse under good growth conditions. 2 to 3 weeks after sowing, the test plants are treated in the one-leaf stage. The compounds according to the invention, formulated in the form of wettable powders (WP) or as emulsion concentrates (EC), are then sprayed onto the green plant parts as aqueous suspension or emulsion at a water application rate of 600 to 800 l/ha (converted) with the addition of 0.2% of wetting agent. The dosage of the compounds according to the invention is given in grams per hectare. After ca. 3 weeks' standing time of the test plants in the greenhouse under optimum growth conditions, the effect of the preparations is scored visually in comparison with untreated controls (herbicidal effect in percent (%): 100% effect=plants have died, 0% effect=as control plants).

Veronica persica [3] = assay: Post-emergence herbicidal effect; assay type: in vivo; conditions: Dosage 320 g/ha, one-leaf stage, visual scoring after ca. 3 weeks vs untreated controls, 100% = plants have died
Protocol: as §1

Echinochloa crus-galli [4] = assay: Post-emergence herbicidal effect; assay type: in vivo; conditions: Dosage 320 g/ha, one-leaf stage, visual scoring after ca. 3 weeks vs untreated controls, 100% = plants have died
Protocol: as §1

Setaria viridis [5] = assay: Post-emergence herbicidal effect; assay type: in vivo; conditions: Dosage 320 g/ha, one-leaf stage, visual scoring after ca. 3 weeks vs untreated controls, 100% = plants have died
Protocol: as §1

Lolium multiflorum [6] = assay: Post-emergence herbicidal effect; assay type: in vivo; conditions: Dosage 320 g/ha, one-leaf stage, visual scoring after ca. 3 weeks vs untreated controls, 100% = plants have died
Protocol: as §1

Abutilon theophrasti = assay: Post-emergence herbicidal effect; assay type: in vivo; conditions: Dosage 320 g/ha, one-leaf stage, visual scoring after ca. 3 weeks vs untreated controls, 100% = plants have died
Protocol: as §1

Amaranthus retroflexus [7] = assay: Post-emergence herbicidal effect; assay type: in vivo; conditions: Dosage 320 g/ha, one-leaf stage, visual scoring after ca. 3 weeks vs untreated controls, 100% = plants have died
Protocol: as §1

Polygonum convolvulus [8] = assay: Post-emergence herbicidal effect; assay type: in vivo; conditions: Dosage 320 g/ha, one-leaf stage, visual scoring after ca. 3 weeks vs untreated controls, 100% = plants have died
Protocol: as §1

Viola tricolor [9] = assay: Post-emergence herbicidal effect; assay type: in vivo; conditions: Dosage 320 g/ha, one-leaf stage, visual scoring after ca. 3 weeks vs untreated controls, 100% = plants have died
Protocol: as §1

PHBPU = assay: Post-emergence herbicidal effect; assay type: in vivo; conditions: Dosage 320 g/ha, one-leaf stage, visual scoring after ca. 3 weeks vs untreated controls, 100% = plants have died
Protocol: as §1, with “2.” for “The following abbreviations are used in the tables below: [table] 2.”

Stellaria media [10] = assay: Pre-emergence herbicidal effect; assay type: in vivo; conditions: Dosage 320 g/ha, visual scoring after 3 weeks vs untreated controls, 100% = plants have died
Excerpt: (§2) 1. Pre-Emergence Herbicidal Effect and Crop Plant Compatibility Seeds of monocotyledonous or dicotyledonous weed plants or crop plants are planted in wood-fiber pots in sandy loam and covered with earth. The compounds according to the invention, formulated in the form of wettable powders (WP) or as emulsion concentrates (EC), are then applied as aqueous suspension or emulsion at a water application rate of 600 to 800 l/ha (converted) with the addition of 0.2% of wetting agent to the surface of the covering earth. The dosage of the compounds according to the invention is given in grams per hectare. Following the treatment, the pots are placed in a greenhouse and kept under good growth conditions for the test plants. The visual scoring of the damage on the test plants is carried out after an experiment time of 3 weeks in comparison with untreated controls (herbicidal effect in percent (%): 100% effect=plants have died, 0% effect=as control plants). The following abbreviations are used in the tables below: [table]

Veronica persica [11] = assay: Pre-emergence herbicidal effect; assay type: in vivo; conditions: Dosage 320 g/ha, visual scoring after 3 weeks vs untreated controls, 100% = plants have died
Excerpt: as §2

Echinochloa crus-galli [12] = assay: Pre-emergence herbicidal effect; assay type: in vivo; conditions: Dosage 320 g/ha, visual scoring after 3 weeks vs untreated controls, 100% = plants have died
Excerpt: as §2

Matricaria inodora = assay: Pre-emergence herbicidal effect; assay type: in vivo; conditions: Dosage 320 g/ha, visual scoring after 3 weeks vs untreated controls, 100% = plants have died
Excerpt: as §2

Lolium multiflorum [13] = assay: Pre-emergence herbicidal effect; assay type: in vivo; conditions: Dosage 320 g/ha, visual scoring after 3 weeks vs untreated controls, 100% = plants have died
Excerpt: as §2

Amaranthus retroflexus [14] = assay: Pre-emergence herbicidal effect; assay type: in vivo; conditions: Dosage 320 g/ha, visual scoring after 3 weeks vs untreated controls, 100% = plants have died
Excerpt: as §2

Alopecurus myosuroides [15] = assay: Post-emergence herbicidal effect; assay type: in vivo; conditions: Dosage 320 g/ha, one-leaf stage, visual scoring after ca. 3 weeks vs untreated controls, 100% = plants have died
Protocol: as §1

Setaria viridis [16] = assay: Pre-emergence herbicidal effect; assay type: in vivo; conditions: Dosage 320 g/ha, visual scoring after 3 weeks vs untreated controls, 100% = plants have died
Excerpt: as §2

Alopecurus myosuroides [17] = assay: Pre-emergence herbicidal effect; assay type: in vivo; conditions: Dosage 320 g/ha, visual scoring after 3 weeks vs untreated controls, 100% = plants have died
Excerpt: as §2

Viola tricolor [18] = assay: Pre-emergence herbicidal effect; assay type: in vivo; conditions: Dosage 320 g/ha, visual scoring after 3 weeks vs untreated controls, 100% = plants have died
Excerpt: as §2

Avena fatua = assay: Pre-emergence herbicidal effect; assay type: in vivo; conditions: Dosage 320 g/ha, visual scoring after 3 weeks vs untreated controls, 100% = plants have died
Excerpt: as §2

Polygonum convolvulus [19] = assay: Pre-emergence herbicidal effect; assay type: in vivo; conditions: Dosage 320 g/ha, visual scoring after 3 weeks vs untreated controls, 100% = plants have died
Excerpt: as §2

Structure (SMILES)	logp (HCOOH) [1]	Post-emergence herbicidal effect STEME (Stellaria media [2]) [%]	Post-emergence herbicidal effect VERPE (Veronica persica [3]) [%]	Post-emergence herbicidal effect ECHCG (Echinochloa crus-galli [4]) [%]	Post-emergence herbicidal effect LOLMU (Lolium multiflorum [6]) [%]	Post-emergence herbicidal effect ABUTH (Abutilon theophrasti) [%]	Post-emergence herbicidal effect AMARE (Amaranthus retroflexus [7]) [%]	Post-emergence herbicidal effect POLCO (Polygonum convolvulus [8]) [%]	Post-emergence herbicidal effect VIOTR (Viola tricolor [9]) [%]	Post-emergence herbicidal effect PHBPU (PHBPU) [%]	Pre-emergence herbicidal effect STEME (Stellaria media [10]) [%]	Pre-emergence herbicidal effect VERPE (Veronica persica [11]) [%]	Pre-emergence herbicidal effect ECHCG (Echinochloa crus-galli [12]) [%]	Pre-emergence herbicidal effect MATIN (Matricaria inodora) [%]	Pre-emergence herbicidal effect LOLMU (Lolium multiflorum [13]) [%]	Pre-emergence herbicidal effect AMARE (Amaranthus retroflexus [14]) [%]	Pre-emergence herbicidal effect SETVI (Setaria viridis [16]) [%]	Pre-emergence herbicidal effect ALOMY (Alopecurus myosuroides [17]) [%]	Pre-emergence herbicidal effect VIOTR (Viola tricolor [18]) [%]	other results
Cc1nc(NC2c3ccccc3CC2C)nc(N)c1C#N (racemic) [Example 1.23]	solid; logp (HCOOH): 1.99; 1H-NMR (CDCl3, 400 MHZ, δ in ppm): 1.25 (d, 3H, CH3);	90	90	100	90	80	80	100	90	80	–	–	–	–	–	–	–	–	–	Post-emergence herbicidal effect SETVI (Setaria viridis [5]): 90%
Cc1nc(NC2CCc3ccc(C(C)C)cc32)nc(N)c1C#N (racemic) [Example 1.28]	wax-like; logp (HCOOH): 2.68; 1H-NMR (CDCl3, 400 MHZ, δ in ppm): 1.20 (d, 6H, CH3);	–	90	90	–	90	90	90	90	–	–	–	–	–	–	–	–	–	–	–
Nc1nc(N[C@@H]2CCCc3ccccc32)ncc1I [Example 1.37]	wax-like; logp (HCOOH): 1.32; 1H-NMR (CDCl3, 400 MHZ, δ in ppm): 1.85 (m, 2H, CH2);	95	90	80	–	85	100	–	80	80	100	100	100	90	100	100	–	–	–	–
CCc1nc(N[C@@H]2CCc3ccccc32)nc(N)c1C#N [Example 1.62, 4-Amino-2-[(1R)-2,3-dihydro-1H-inden-1-ylamino]-6-ethylpyrimidine-5-carbonitrile]	–	80	80	90	90	–	–	80	–	80	100	100	100	90	80	–	90	80	100	chromatographic logP ([1]; HCOOH (formic acid)): 2.18; Post-emergence herbicidal effect ALOMY (Alopecurus myosuroides [15]): 80%
Cc1ccc2c(c1)[C@H](Nc1nc(N)cc(Cl)n1)[C@@H](C)C2 [Example 1.75]	–	87	85	85	–	–	90	80	–	90	100	100	100	100	95	100	95	100	100	Pre-emergence herbicidal effect AVEFA (Avena fatua): 90%; Pre-emergence herbicidal effect POLCO (Polygonum convolvulus [19]): 100%
Nc1nc(N[C@@H]2CCCc3ccccc32)ncc1Cl [Example 1.106]	–	80	80	90	90	–	80	–	–	–	100	100	90	90	100	100	100	100	–	Post-emergence herbicidal effect SETVI (Setaria viridis [5]): 80%; Post-emergence herbicidal effect ALOMY (Alopecurus myosuroides [15]): 80%
CC[C@H]1Cc2ccccc2[C@@H]1Nc1nc(C)c([N+](=O)[O-])c(N)n1 [Example 1.126]	–	90	85	80	–	–	–	–	–	80	100	100	95	100	–	100	85	–	100	Pre-emergence herbicidal effect POLCO (Polygonum convolvulus [19]): 90%
